From article PMC4627656, “Combining Metabolite-Based Pharmacophores with Bayesian Machine Learning Models for Mycobacterium tuberculosis Drug Discovery” (PLoS ONE, 2015)
In brackets after ≈: the same amount, converted by molar mass. Like-named read-outs stand apart in the source and are kept apart here.

Assays:
Mtb = system: Mtb; set-up: method as in PMID 18502817; conditions: cited from earlier work
mammalian cell = conditions: cited from earlier work
Mtb H37Rv strain = experiment: Resazurin (Alamar Blue) MIC assay against replicating Mtb; type: cell-based, Mycobacterium tuberculosis; conditions: lowest concentration inhibiting ≥90% growth, initial hits, quinoxaline di-N-oxides, positive controls; for MIC: Mycobacterium tuberculosis, H37RV
in vitro [1] = conditions: African green monkey
[2] = mouse, microsomes, pH 7.4
Method: The test agent was incubated in duplicate with mouse liver microsomes at 37°C. The reaction contained microsomal protein in 100 mM K3PO4, 2 mM NADPH, and 3 mM MgCl2 at pH 7.4. A control was run for each test agent omitting NADPH to detect NADPH-free degradation. At t = 0 and 60 min, an aliquot was removed from each experimental and control reaction and mixed with an equal volume of ice-cold Stop Solution (methanol containing propranolol as an internal standard). Stopped reactions were incubated at least ten min at -20°C, and an additional volume of water was added. The samples were centrifuged to remove precipitated protein, and the supernatants were analyzed by LC/MS/MS to quantitate the remaining parent. Data were reported as % remaining by dividing by the time zero concentration value.

physchem = type: physicochemical; conditions: 37 °C, pH 7.4, aqueous buffer, kinetic from dmso stock
Method: Serial dilutions of the test agent were prepared in DMSO at 100x the final concentration. Test article solutions were diluted 100-fold into pH 7.4 phosphate-buffer saline (PBS) in a 96-well plate and mixed. After 2 h at 37°C, the presence of precipitate was detected by turbidity (absorbance at 540 nm). An absorbance value of greater than ‘mean + 3x standard deviation of the blank’ (after subtracting the background) was indicative of turbidity. For brightly colored compounds, a visual inspection of the plate was performed to verify the solubility limit determined by UV absorbance. The solubility limit was reported as the highest experimental concentration with no evidence of turbidity.

clinical strain 692 = experiment: AlamarBlue MIC (absorbance), strain panel: 692; type: cell-based; conditions: Mycobacterium tuberculosis, pan-susceptible
in vitro [3] = conditions: human, Caco-2
Caco-2 cell permeability = conditions: human
[4] = in vitro cultured Mtb H37Rv, read-out: Mtb MIC (H37Rv)
[5] = 3.2 μg/mL (1.3X MIC), 6 h, vs DMSO

Row | Structure (SMILES) | MIC (Mtb H37Rv strain; [4]) [mg/L] | CC50 at 72 h (in vitro [1]) [mg/L] | % Compound remaining after 1h in the absence of NADPH [2] [%] | % Compound remaining after 1h in the presence of NADPH [2] [%] | solubility kinetic at 2 h (physchem) [µM] | Papp A→B at 2 h, 10 μM (in vitro [3]) [nm/s] | Papp B→A at 2 h, 10 μM (in vitro [3]) [nm/s] | other results
1 | CC(=O)c1c(C)[n+]([O-])c2ccccc2[n+]1[O-] [SRI1, 1-(3-methyl-1,4-dioxy-quinoxalin-2-yl)-ethanone] | 2.5 (≈ 11.5 µM) | > 40 | – | – | – | – | – | MIC previously identified (Mtb): 3.13 mg/L (≈ 14.3 µM); Mammalian cell cytotoxicity previously reported (mammalian cell): no appreciable mammalian cell cytotoxicity
2 | CCCCC(=O)c1c(C)[n+]([O-])c2ccc([N+](=O)[O-])cc2[n+]1[O-] [SRI50] | 0.32 (≈ 1.05 µM) | 3.4 (≈ 11.1 µM) | 77.5 | 0.06 | 125 (≈ 38.2 µg/mL) | – | – | MIC (clinical strain 692): 0.16 mg/L (≈ 0.524 µM)
3 | CCCCC(=O)c1c(C)[n+]([O-])c2cc(Cl)c(Cl)cc2[n+]1[O-] [SRI54] | 2.5 (≈ 7.59 µM) | 15 (≈ 45.6 µM) | 79.1 | 0 | 15.6 (≈ 5.14 µg/mL) | 6.6 | 1 | efflux ratio at 2 h, 10 μM (Caco-2 cell permeability): 0.15; Genes down-regulated at minimum twofold versus control (Mtb (H37Rv); [5]): 184 genes; Genes up-regulated at least twofold versus control (Mtb (H37Rv); [5]): 131 genes; DNA repair genes down-regulated at least twofold (Mtb (H37Rv); 3.2 μg/mL, 6 h): 2/59; DNA repair genes up-regulated at least twofold (Mtb (H37Rv); 3.2 μg/mL, 6 h): 12/59; Methylcitrate cycle genes (prpC, prpD, icl1) induced more than fourfold versus control (Mtb (H37Rv); 3.2 μg/mL, 6 h): 3/13; Avg. fold induction over four replicates, hypothetical protein ORF01494 (Mtb (H37Rv); ORF01494, treated vs DMSO): 11.22; Avg. fold induction over four replicates, Rv0560c (Mtb (H37Rv); gene Rv0560c, treated vs DMSO): 38.01; Avg. fold induction over four replicates, Rv1130 (Mtb (H37Rv); gene Rv1130, treated vs DMSO): 8.92; Avg. fold induction over four replicates, Rv3074 (Mtb (H37Rv); gene Rv3074, treated vs DMSO): 8.59; Avg. fold induction over four replicates, gltA1 (Mtb (H37Rv); gene gltA1 (Rv1131), treated vs DMSO): 15.16; Hierarchical clustering of transcriptional response (Mtb (H37Rv); top 100 most up- and down-regulated genes vs deposited Mtb transcriptional data): clustered most closely to the fatty acid biosynthesis inhibitor CD117
4 | Cc1c(C(=O)C2CC2)[n+]([O-])c2cc(Cl)c(Cl)cc2[n+]1[O-] [SRI58] | – | > 40 | 110 | 63.6 | 125 (≈ 39.1 µg/mL) | 23 | 5.7 | efflux ratio at 2 h, 10 μM (in vitro [3]): 0.25; MIC (Mtb H37Rv strain; read-out: Mtb MIC (H37Rv), in vitro cultured Mtb H37Rv): 1.2 mg/L (≈ 3.83 µM); Mtb MIC (H37Rv) (Mtb H37Rv strain; in vitro cultured Mtb H37Rv): 1.25 mg/L
